Source: BigSolDB 2.1

Clc1ccccc1C(c1ccccc1)(c1ccccc1)n1ccnc1
Settings	solubility (mole fraction)
in ethyl acetate, 283.11 K	0.00714
in ethyl acetate, 288.17 K	0.00838
in ethyl acetate, 293.24 K	0.01
in ethyl acetate, 298.15 K	0.0119
in ethyl acetate, 303.14 K	0.0142
in ethyl acetate, 308.18 K	0.0168
in ethyl acetate, 313.12 K	0.0198
in ethyl acetate, 318.16 K	0.0233
in ethyl acetate, 323.19 K	0.0275
in isobutanol, 283.09 K	0.0157
in isobutanol, 288.15 K	0.0202
in isobutanol, 293.11 K	0.0251
in isobutanol, 298.17 K	0.0311
in isobutanol, 303.16 K	0.0385
in isobutanol, 308.21 K	0.0477
in isobutanol, 313.15 K	0.0589
in isobutanol, 318.14 K	0.0722
in isobutanol, 323.18 K	0.0873
in isopentanol, 283.13 K	0.0157
in isopentanol, 288.18 K	0.0193
in isopentanol, 293.14 K	0.0239
in isopentanol, 298.16 K	0.0296
in isopentanol, 303.13 K	0.0366
in isopentanol, 308.18 K	0.045
in isopentanol, 313.12 K	0.0548
in isopentanol, 318.15 K	0.0668
in isopentanol, 323.19 K	0.081
in isopropanol, 283.1 K	0.00571
in isopropanol, 288.15 K	0.00723
in isopropanol, 293.13 K	0.00916
in isopropanol, 298.16 K	0.0115
in isopropanol, 303.12 K	0.0145
in isopropanol, 308.15 K	0.0185
in isopropanol, 313.19 K	0.0235
in isopropanol, 318.16 K	0.03
in isopropanol, 323.15 K	0.0384
in isopropyl acetate, 283.1 K	0.00518
in isopropyl acetate, 288.16 K	0.00615
in isopropyl acetate, 293.2 K	0.0073
in isopropyl acetate, 298.19 K	0.00868
in isopropyl acetate, 303.15 K	0.0102
in isopropyl acetate, 308.12 K	0.0121
in isopropyl acetate, 313.15 K	0.0144
in isopropyl acetate, 318.19 K	0.0171
in isopropyl acetate, 323.17 K	0.0203
in methyl acetate, 283.15 K	0.00661
in methyl acetate, 288.17 K	0.00792
in methyl acetate, 293.1 K	0.00953
in methyl acetate, 298.21 K	0.0114
in methyl acetate, 303.15 K	0.0137
in methyl acetate, 308.16 K	0.0164
in methyl acetate, 313.12 K	0.0196
in methyl acetate, 318.14 K	0.0235
in methyl acetate, 323.18 K	0.0281
in methyl propionate, 283.13 K	0.00984
in methyl propionate, 288.17 K	0.0117
in methyl propionate, 293.21 K	0.0138
in methyl propionate, 298.15 K	0.0163
in methyl propionate, 303.14 K	0.0192
in methyl propionate, 308.17 K	0.0227
in methyl propionate, 313.08 K	0.0268
in methyl propionate, 318.19 K	0.0316
in methyl propionate, 323.15 K	0.0373
in n-butanol, 283.16 K	0.0151
in n-butanol, 288.11 K	0.0188
in n-butanol, 293.15 K	0.0235
in n-butanol, 298.2 K	0.0289
in n-butanol, 303.14 K	0.0356
in n-butanol, 308.18 K	0.0439
in n-butanol, 313.15 K	0.0538
in n-butanol, 318.17 K	0.0659
in n-butanol, 323.16 K	0.0798
in n-butyl acetate, 283.16 K	0.00743
in n-butyl acetate, 288.19 K	0.00886
in n-butyl acetate, 293.14 K	0.0104
in n-butyl acetate, 298.16 K	0.0124
in n-butyl acetate, 303.11 K	0.0148
in n-butyl acetate, 308.09 K	0.0176
in n-butyl acetate, 313.25 K	0.0211
in n-butyl acetate, 318.15 K	0.0251
in n-butyl acetate, 323.13 K	0.0299
in n-heptanol, 283.17 K	0.0108
in n-heptanol, 288.14 K	0.0151
in n-heptanol, 293.18 K	0.0198
in n-heptanol, 298.16 K	0.0251
in n-heptanol, 303.1 K	0.0316
in n-heptanol, 308.15 K	0.039
in n-heptanol, 313.19 K	0.0474
in n-heptanol, 318.08 K	0.0578
in n-heptanol, 323.16 K	0.0695
in n-hexanol, 283.08 K	0.0145
in n-hexanol, 288.13 K	0.0185
in n-hexanol, 293.16 K	0.0231
in n-hexanol, 298.15 K	0.0287
in n-hexanol, 303.19 K	0.0356
in n-hexanol, 308.14 K	0.0432
in n-hexanol, 313.1 K	0.053
in n-hexanol, 318.21 K	0.064
in n-hexanol, 323.17 K	0.0769
in n-octanol, 283.06 K	0.0118
in n-octanol, 288.15 K	0.0159
in n-octanol, 293.13 K	0.0203
in n-octanol, 298.19 K	0.0247
in n-octanol, 303.11 K	0.0301
in n-octanol, 308.22 K	0.0366
in n-octanol, 313.18 K	0.0453
in n-octanol, 318.09 K	0.0553
in n-octanol, 323.17 K	0.0661
in n-pentanol, 283.19 K	0.0169
in n-pentanol, 288.15 K	0.0213
in n-pentanol, 293.13 K	0.0269
in n-pentanol, 298.1 K	0.0325
in n-pentanol, 303.12 K	0.04
in n-pentanol, 308.15 K	0.0486
in n-pentanol, 313.07 K	0.0587
in n-pentanol, 318.14 K	0.0707
in n-pentanol, 323.17 K	0.085
in n-propanol, 283.15 K	0.0144
in n-propanol, 288.12 K	0.0172
in n-propanol, 293.14 K	0.0213
in n-propanol, 298.18 K	0.0263
in n-propanol, 303.16 K	0.0327
in n-propanol, 308.15 K	0.0405
in n-propanol, 313.11 K	0.05
in n-propanol, 318.17 K	0.0618
in n-propanol, 323.18 K	0.0761
in n-propyl acetate, 283.15 K	0.008
in n-propyl acetate, 288.14 K	0.0095
in n-propyl acetate, 293.19 K	0.0112
in n-propyl acetate, 298.17 K	0.0132
in n-propyl acetate, 303.16 K	0.0156
in n-propyl acetate, 308.12 K	0.0185
in n-propyl acetate, 313.21 K	0.0217
in n-propyl acetate, 318.15 K	0.0257
in n-propyl acetate, 323.13 K	0.0303
in sec-butanol, 283.15 K	0.0101
in sec-butanol, 288.16 K	0.013
in sec-butanol, 293.21 K	0.0165
in sec-butanol, 298.18 K	0.021
in sec-butanol, 303.13 K	0.0267
in sec-butanol, 308.15 K	0.0338
in sec-butanol, 313.19 K	0.0425
in sec-butanol, 318.11 K	0.0532
in sec-butanol, 323.14 K	0.0657
